One compound from ChEMBL document CHEMBL4406913, “INCB050465 (Parsaclisib), a Novel Next-Generation Inhibitor of Phosphoinositide 3-Kinase Delta (PI3Kδ)” (ACS Med Chem Lett, 2019) can be followed below.

The term IC50 denotes the concentration that gives 50% inhibition. The term bioavailability denotes the share of a dose that reaches the circulation, judged against a reference dose that is usually intravenous.

Molecules are shown by their SMILES. The source made the active and inactive calls. No cut-off for these calls is given here.

The target in data set [1] is Phosphatidylinositol 4,5-bisphosphate 3-kinase catalytic subunit alpha isoform (Homo sapiens, UniProt P42336). Briefly: Inhibition of PI3Kalpha (unknown origin) using D-myophosphatidylinositol 4,5-bisphosphate as substrate incubated for 120 mins by [gamma-33P]-ATP based scintillation counting method.
The nature of data set [2]: Clearance in rat at 4 mg/kg, iv measured for 24 hrs by LC-MS/MS analysis. The data set is classed as ADME, organism-based. To be noted: in vivo.
Data set [3] can be described thus: Volume of distribution at steady state in Beagle dog at 2 mg/kg, iv measured for 24 hrs by LC-MS/MS analysis. The data set is classed as ADME, organism-based, Canis lupus familiaris. To be noted: in vivo, read-out: Vdss.
A further data set has as its target Cytochrome P450 2C19 (Homo sapiens, UniProt P33261). Briefly: Inhibition of CYP2C19 in human liver microsomes at 0.1 to 25 uM using S-mephenytoin as substrate by LC/MS analysis. The data set is classed as ADME. (In general: Liver microsomes are a subcellular fraction often used to study metabolism.)
Data set [4] is described as follows: Intrinsic clearance in human liver microsomes at 1 uM measured upto 30 mins by LC/MS analysis. The class given is ADME, Microsome. The conditions noted are these: read-out: CLH (converted).
The subject of data set [5] is Pfeiffer. The data set is described as follows: Antitumor activity against human Pfeiffer cells xenografted in SCID mouse assessed as reduction in tumor growth at 1 mg/kg, po bid for 14 days measured 2-3 times weekly by digital caliper method. The data set is classed as functional, organism-based.
Data set [6] has as its target Voltage-gated inwardly rectifying potassium channel KCNH2 (Homo sapiens, UniProt Q12809). Briefly: Inhibition of human ERG expressed in HEK293 cells by voltage patch clamp assay. The class given is cell-based.
A further data set addresses T1, Cytochrome P450 1A2 (Homo sapiens, UniProt P05177).
T1 sequence (P05177 whole entry): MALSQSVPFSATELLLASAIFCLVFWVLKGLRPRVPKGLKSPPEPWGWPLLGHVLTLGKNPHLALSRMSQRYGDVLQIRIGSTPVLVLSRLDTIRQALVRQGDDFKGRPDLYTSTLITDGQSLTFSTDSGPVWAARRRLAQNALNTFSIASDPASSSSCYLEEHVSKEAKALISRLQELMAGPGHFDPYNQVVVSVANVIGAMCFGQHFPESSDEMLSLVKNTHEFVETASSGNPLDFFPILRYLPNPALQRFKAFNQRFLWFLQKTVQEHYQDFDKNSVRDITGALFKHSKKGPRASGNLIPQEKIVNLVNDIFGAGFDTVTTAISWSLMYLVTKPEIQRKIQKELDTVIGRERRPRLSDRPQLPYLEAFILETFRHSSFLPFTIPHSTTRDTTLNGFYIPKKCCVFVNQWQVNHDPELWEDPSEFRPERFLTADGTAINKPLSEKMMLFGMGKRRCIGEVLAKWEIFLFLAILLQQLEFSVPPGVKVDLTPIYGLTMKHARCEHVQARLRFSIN
Briefly: Inhibition of CYP1A2 in human liver microsomes at 0.1 to 25 uM using 7-ethoxyresorufin as substrate by LC/MS analysis. The class given is ADME.

The nature of data set [7]: Hepatotoxicity in rat measured on day 28. The class given is toxicity. To be noted: in vivo.
Data set [8] in a line: Hepatotoxicity in Beagle dog measured on day 28. The data set is classed as toxicity, Canis lupus familiaris. To be noted: in vivo.
The nature of data set [9]: Oral bioavailability in rat at 4 mg/kg measured for 24 hrs by LC-MS/MS analysis. The data set is classed as ADME, organism-based. To be noted: in vivo.
In a further data set the target is T2, Cytochrome P450 2C8 (Homo sapiens, UniProt P10632).
T2 sequence (P10632 whole entry): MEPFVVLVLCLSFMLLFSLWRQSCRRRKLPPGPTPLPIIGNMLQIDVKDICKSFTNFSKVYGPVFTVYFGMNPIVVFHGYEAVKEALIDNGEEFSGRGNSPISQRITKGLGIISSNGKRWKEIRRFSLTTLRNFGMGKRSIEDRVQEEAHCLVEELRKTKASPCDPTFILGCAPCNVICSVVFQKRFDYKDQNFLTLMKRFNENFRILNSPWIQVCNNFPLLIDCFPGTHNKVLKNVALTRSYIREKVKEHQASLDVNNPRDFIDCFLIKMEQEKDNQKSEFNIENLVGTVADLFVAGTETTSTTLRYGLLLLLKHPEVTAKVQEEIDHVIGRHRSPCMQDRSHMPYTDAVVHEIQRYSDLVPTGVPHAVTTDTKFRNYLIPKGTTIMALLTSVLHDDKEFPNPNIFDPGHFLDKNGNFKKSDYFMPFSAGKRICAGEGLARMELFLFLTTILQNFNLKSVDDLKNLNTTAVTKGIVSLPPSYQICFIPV
Briefly: Inhibition of CYP2C8 in human liver microsomes at 0.1 to 25 uM using amodiaquine as substrate by LC/MS analysis. The data set is classed as ADME.

Data set [10] is described as follows: Permeability across apical to basolateral side in human Caco2 cells at 50 uM incubated for 120 mins by LC/MS analysis. The data set is classed as ADME, cell-based. The conditions noted are these: Caco-2, read-out: permeability. On the technique in general: Caco-2 monolayers are a common model of the intestinal barrier.
In data set [11] the target is Phosphatidylinositol 4,5-bisphosphate 3-kinase catalytic subunit gamma isoform (Homo sapiens, UniProt P48736). The data set is described as follows: Inhibition of PI3Kgamma (unknown origin) using D-myophosphatidylinositol 4,5-bisphosphate as substrate incubated for 120 mins by [gamma-33P]-ATP based scintillation counting method.
Chain of Phosphatidylinositol 4,5-bisphosphate 3-kinase catalytic subunit gamma isoform (P48736 whole entry, canonical isoform): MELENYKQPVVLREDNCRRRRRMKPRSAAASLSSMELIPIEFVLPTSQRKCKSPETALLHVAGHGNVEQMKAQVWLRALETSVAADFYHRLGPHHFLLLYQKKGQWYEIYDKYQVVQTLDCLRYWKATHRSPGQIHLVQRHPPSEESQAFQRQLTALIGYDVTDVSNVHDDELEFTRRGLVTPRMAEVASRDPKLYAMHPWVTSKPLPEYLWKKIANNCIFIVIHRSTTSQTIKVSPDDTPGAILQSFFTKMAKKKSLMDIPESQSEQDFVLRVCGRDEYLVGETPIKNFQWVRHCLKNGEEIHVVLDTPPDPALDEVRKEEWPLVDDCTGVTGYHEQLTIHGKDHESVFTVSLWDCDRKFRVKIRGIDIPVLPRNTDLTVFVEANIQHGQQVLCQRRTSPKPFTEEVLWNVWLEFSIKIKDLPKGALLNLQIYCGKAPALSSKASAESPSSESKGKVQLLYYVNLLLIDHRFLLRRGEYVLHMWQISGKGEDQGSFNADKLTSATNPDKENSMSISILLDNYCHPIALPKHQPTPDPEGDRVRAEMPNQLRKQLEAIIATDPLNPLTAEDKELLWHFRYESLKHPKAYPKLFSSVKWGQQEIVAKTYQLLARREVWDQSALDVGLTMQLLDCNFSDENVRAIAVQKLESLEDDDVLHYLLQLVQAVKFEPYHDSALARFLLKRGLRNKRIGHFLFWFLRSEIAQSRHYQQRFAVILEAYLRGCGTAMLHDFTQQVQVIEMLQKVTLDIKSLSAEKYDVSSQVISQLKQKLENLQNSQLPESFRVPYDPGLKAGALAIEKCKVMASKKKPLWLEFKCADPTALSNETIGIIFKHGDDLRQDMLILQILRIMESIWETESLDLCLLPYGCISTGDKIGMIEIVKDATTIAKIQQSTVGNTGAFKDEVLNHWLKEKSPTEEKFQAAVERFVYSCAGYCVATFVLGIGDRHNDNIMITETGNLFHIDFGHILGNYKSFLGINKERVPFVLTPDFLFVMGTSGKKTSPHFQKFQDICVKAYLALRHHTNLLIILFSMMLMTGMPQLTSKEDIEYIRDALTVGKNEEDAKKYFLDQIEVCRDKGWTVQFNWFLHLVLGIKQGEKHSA
Data set [12] deals with Pfeiffer. The data set is described as follows: Cytotoxicity against human Pfeiffer cells assessed as reduction in cell viability incubated for 4 days by [3H]-thymidine incorporation based liquid scintillation counter method. The class given is functional. In general terms: Incorporation of labelled thymidine or its analogues reports DNA synthesis.
For the next data set, the target named is Cytochrome P450 2D6 (Homo sapiens, UniProt P10635). The data set is described as follows: Inhibition of CYP2D6 in human liver microsomes using bufuralol as substrate by LC/MS analysis. The class given is ADME.
Chain of Cytochrome P450 2D6 (P10635 whole entry, canonical isoform): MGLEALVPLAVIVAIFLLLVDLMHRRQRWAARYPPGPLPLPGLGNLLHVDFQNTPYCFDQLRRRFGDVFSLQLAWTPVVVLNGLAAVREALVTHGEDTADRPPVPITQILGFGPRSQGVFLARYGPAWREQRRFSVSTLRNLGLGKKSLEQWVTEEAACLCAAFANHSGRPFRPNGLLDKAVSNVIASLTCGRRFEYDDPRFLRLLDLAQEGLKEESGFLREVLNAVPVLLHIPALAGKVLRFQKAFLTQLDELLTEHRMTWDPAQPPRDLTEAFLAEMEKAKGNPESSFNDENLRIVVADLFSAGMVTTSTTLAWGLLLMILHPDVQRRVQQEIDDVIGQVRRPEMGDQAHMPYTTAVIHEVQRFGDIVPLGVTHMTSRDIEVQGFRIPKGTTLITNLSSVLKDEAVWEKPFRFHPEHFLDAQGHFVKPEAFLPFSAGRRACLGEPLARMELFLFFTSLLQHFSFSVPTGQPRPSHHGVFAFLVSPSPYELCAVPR
The target in data set [13] is Phosphatidylinositol 4,5-bisphosphate 3-kinase catalytic subunit beta isoform (Homo sapiens, UniProt P42338). Briefly: Inhibition of PI3Kbeta (unknown origin) using D-myophosphatidylinositol 4,5-bisphosphate as substrate incubated for 120 mins by [gamma-33P]-ATP based scintillation counting method.
Chain of Phosphatidylinositol 4,5-bisphosphate 3-kinase catalytic subunit beta isoform (P42338 whole entry, canonical isoform): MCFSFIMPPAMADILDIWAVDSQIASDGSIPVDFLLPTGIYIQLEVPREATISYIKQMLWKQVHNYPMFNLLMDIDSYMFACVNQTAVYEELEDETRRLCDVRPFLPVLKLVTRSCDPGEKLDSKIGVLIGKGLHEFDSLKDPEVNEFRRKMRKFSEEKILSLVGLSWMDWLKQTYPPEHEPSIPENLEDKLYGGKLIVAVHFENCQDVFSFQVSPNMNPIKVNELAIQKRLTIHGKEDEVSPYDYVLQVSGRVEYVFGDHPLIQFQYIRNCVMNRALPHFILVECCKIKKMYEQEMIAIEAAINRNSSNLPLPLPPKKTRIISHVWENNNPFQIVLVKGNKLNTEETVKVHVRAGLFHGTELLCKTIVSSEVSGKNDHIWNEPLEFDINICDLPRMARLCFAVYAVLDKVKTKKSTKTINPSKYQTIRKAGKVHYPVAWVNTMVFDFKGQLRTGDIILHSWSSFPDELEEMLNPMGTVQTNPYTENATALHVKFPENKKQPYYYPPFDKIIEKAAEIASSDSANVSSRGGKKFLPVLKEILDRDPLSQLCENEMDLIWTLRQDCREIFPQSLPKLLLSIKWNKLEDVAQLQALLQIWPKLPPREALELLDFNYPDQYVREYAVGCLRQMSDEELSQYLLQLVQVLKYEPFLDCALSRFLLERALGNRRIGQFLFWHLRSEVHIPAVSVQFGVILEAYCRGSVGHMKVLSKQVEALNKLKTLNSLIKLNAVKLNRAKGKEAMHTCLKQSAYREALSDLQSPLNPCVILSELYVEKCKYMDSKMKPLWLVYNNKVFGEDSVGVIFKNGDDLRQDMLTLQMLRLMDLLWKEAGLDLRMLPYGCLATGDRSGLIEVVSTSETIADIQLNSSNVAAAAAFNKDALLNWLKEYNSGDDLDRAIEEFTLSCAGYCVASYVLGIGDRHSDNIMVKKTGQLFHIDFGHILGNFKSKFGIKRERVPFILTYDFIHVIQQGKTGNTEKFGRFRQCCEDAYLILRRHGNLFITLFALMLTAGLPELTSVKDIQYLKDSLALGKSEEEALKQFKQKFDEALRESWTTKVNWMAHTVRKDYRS
Data set [14] can be described thus: Clearance in cynomolgus monkey at 2 mg/kg, iv measured for 24 hrs by LC-MS/MS analysis. The data set is classed as ADME, organism-based, Macaca fascicularis. To be noted: in vivo.
Data set [15] can be described thus: Terminal half life in cynomolgus monkey at 2 mg/kg, iv measured for 24 hrs by LC-MS/MS analysis. The class given is ADME, organism-based, Macaca fascicularis. The conditions noted are these: in vivo, read-out: beta t1/2 (converted).
The subject of a further data set is SU-DHL-6. The data set is described as follows: Cytotoxicity against human SUDHL6 cells assessed as reduction in cell viability incubated for 4 days by celltiter glo luminescent assay. The class given is functional, cell-based. The conditions noted are these: SU-DHL-6, 96 h.

Chain of Cytochrome P450 2C19 (P33261 whole entry): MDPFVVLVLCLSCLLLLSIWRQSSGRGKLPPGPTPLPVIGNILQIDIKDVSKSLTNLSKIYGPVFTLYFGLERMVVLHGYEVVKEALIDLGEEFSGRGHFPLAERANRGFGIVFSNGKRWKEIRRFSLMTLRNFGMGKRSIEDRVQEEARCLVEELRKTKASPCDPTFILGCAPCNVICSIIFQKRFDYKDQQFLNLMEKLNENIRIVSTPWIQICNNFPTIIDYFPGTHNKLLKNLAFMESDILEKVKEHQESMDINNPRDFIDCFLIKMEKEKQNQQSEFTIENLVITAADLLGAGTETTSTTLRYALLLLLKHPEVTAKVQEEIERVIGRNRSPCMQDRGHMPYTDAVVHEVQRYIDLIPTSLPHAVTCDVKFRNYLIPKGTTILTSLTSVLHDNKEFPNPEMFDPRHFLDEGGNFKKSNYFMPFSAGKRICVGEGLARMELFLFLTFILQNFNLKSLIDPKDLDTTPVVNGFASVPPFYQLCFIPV
Chain of Voltage-gated inwardly rectifying potassium channel KCNH2 (Q12809 whole entry): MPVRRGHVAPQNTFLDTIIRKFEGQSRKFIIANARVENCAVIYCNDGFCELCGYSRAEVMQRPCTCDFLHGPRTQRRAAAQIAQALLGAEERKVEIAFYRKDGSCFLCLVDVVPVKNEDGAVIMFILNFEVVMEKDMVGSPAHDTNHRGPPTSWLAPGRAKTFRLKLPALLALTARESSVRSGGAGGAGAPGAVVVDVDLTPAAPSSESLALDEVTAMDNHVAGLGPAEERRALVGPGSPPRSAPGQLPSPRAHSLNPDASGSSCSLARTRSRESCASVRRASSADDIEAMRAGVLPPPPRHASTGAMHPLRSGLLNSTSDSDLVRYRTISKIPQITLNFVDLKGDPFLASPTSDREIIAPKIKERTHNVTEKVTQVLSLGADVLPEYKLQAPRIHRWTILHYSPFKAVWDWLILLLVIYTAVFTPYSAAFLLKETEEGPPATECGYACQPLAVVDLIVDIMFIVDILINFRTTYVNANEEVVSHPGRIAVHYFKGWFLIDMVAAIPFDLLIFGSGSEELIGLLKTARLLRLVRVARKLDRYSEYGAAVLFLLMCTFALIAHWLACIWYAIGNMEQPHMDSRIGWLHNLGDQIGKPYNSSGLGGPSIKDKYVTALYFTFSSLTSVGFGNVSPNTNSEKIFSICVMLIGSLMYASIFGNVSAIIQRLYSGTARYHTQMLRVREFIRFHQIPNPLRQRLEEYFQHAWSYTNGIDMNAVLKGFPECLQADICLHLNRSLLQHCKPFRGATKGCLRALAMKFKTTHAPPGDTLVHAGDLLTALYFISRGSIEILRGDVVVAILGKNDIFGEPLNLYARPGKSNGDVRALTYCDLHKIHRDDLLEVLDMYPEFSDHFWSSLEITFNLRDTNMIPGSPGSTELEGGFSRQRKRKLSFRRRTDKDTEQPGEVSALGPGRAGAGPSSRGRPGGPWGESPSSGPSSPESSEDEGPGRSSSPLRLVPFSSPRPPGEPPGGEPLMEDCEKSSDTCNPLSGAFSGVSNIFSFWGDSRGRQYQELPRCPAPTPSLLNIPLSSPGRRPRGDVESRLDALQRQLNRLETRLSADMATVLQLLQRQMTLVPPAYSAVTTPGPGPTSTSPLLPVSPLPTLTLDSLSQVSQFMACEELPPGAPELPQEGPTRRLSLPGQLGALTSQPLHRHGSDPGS

Regarding `CCOc1c([C@H](C)n2nc(C)c3c(N)ncnc32)cc(Cl)c(F)c1[C@@H]1CNC(=O)C1` [PARSACLISIB], the IC50 is over 20 µM in data set [1]; 75 µM in data set [6]; over 10 µM in data set [11]; 0.0025 µM in the data set with Pfeiffer [12]; over 20 µM in [13]; 0.0016 µM in the data set with SU-DHL-6. Further, the figures for the CL in [2] and in data set [14] were 26% and 5%, respectively. Moreover, the Vd in [3] stood at 0.32 L/kg. Moreover, the “inhibition (INH)” value against Cytochrome P450 2C19, at Cytochrome P450 1A2, against Cytochrome P450 2C8 and on Cytochrome P450 2D6 was “Not Active” in each case. Also, in [4], the CLint scaled at 1 µM was 11.7 mL/min/kg. The inhibition result with Pfeiffer [5] is “Active”. The Activity entry in [7] and in [8] was “Non-Toxic” each time. The same compound gave a bioavailability in data set [9] of 74%. The Papp A→B at 2 h, 50 µM in data set [10] came to 1 ×10⁻⁶ cm/s. For the same compound, the half-life in data set [15] was 7.3 h.
